The record followed here is the Deep4Chem optical property database.

Structures are written as SMILES.

This series in a line: photoluminescence quantum yield (fraction); solvent given as SMILES.

As to `C(=C\c1cc(/C=C/c2ccc(-n3c4ccccc4c4ccccc43)cc2)cc(/C=C/c2ccc(-n3c4ccccc4c4ccccc43)cc2)c1)/c1ccc(-n2c3ccccc3c3ccccc32)cc1`, the photoluminescence quantum yield (in C1CCOC1) stood at 0.8, the photoluminescence quantum yield (in CC#N) was determined as 0.83, the photoluminescence quantum yield (in Cc1ccccc1) came to 0.59 and the photoluminescence quantum yield (in ClCCl) was determined as 0.75.
On to `c1ccc2c([SiH](c3c4ccccc4cc4ccccc34)c3c4ccccc4cc4ccccc34)c3ccccc3cc2c1`, for which the photoluminescence quantum yield (in ClC(Cl)Cl) is 0.028.
`Nc1nc2c([nH]c(=O)n2[C@H]2C[C@H](O)[C@@H](CO)O2)c(=O)[nH]1` came in with a photoluminescence quantum yield (in O) of 0.00013.
Compound `c1ccc(-c2c3ccccc3c(-c3ccccc3)c3ccccc23)cc1` came in with a photoluminescence quantum yield (in C1CCCCC1) of 0.97.
Regarding `FC(F)(F)c1ccc(B2c3ccccc3Nc3ccccc32)c(C(F)(F)F)c1`, the photoluminescence quantum yield (in ClCCl) came out at 0.9.
For `CN(C)c1ccc(/C=C/c2nc3c4ccccc4c4ccccc4c3[nH]2)cc1`, the photoluminescence quantum yield (in C1CCOC1) was determined as 0.055; the photoluminescence quantum yield (in C1COCCO1) was 0.176; the photoluminescence quantum yield (in CC1CCCCC1) stood at 0.195; the photoluminescence quantum yield (in CC#N) was found to be 0.058; the photoluminescence quantum yield (in CCOC(C)=O) is 0.048; the photoluminescence quantum yield (in CCOCC) came out at 0.147. The photoluminescence quantum yield was 0.04 (in CN(C)C=O); 0.03 (in COC(C)=O); 0.067 (in CS(C)=O); 0.114 (in Cc1ccccc1); 0.035 (in ClC(Cl)Cl).
For `c1ccc2c(c1)CCc1c-2cnc2c1-c1ccccc1CC2`, the photoluminescence quantum yield by setting is: (in C1CCOC1) 0.665; (in CC#N) 0.69; (in CCCCCC) 0.149; (in CCOC(C)=O) 0.567; (in CO) 0.141; (in CS(C)=O) 0.227. Further, the photoluminescence quantum yield is, setting by setting: (in Cc1ccccc1) 0.513; (in ClCCl) 0.291.
In the case of `CC1=CC(C)=[N+]2C1=C(c1ccc(N(C)C)cc1)c1c(C)cc(C)n1[B-]2(F)F`, the photoluminescence quantum yield is 0.014 (in C1CCOC1); 0.005 (in CC#N); 0.015 (in CC(=O)C(C)(C)C); 0.009 (in CC(C)=O); 0.441 (in CCCCCC); 0.011 (in CCOC(C)=O).
For the setting “in c1cc(-c2cccc(-n3c4ccccc4c4ccccc43)c2)cc(-n2c3ccccc3c3ccccc32)c1”, `CC(C)c1cc(C(C)C)c(B2c3cc(N4c5ccccc5C(C)(C)c5ccccc54)ccc3N(c3ccccc3)c3ccc(N4c5ccccc5C(C)(C)c5ccccc54)cc32)c(C(C)C)c1` displayed a photoluminescence quantum yield of 0.95.
For the compound `c1ccc(-c2cnc3nn4ccccc4c3n2)cc1`, the photoluminescence quantum yield (in C1CCOC1) stood at 0.96.
`Cc1ccc(C)c(C)c1` had a photoluminescence quantum yield (in C1CCCCC1) of 0.41.
As for `O=Cc1cnc(-c2c3ccccc3cc3ccccc23)nc1`, the photoluminescence quantum yield is, setting by setting: (in CCO) 0.25; (in ClCCl) 0.28.
For the setting “in ClC(Cl)Cl”, `COc1ccc(-c2ccc(-c3c4c(nc5ccccc35)-c3cc5c(cc3CC4)-c3nc4ccccc4c(-c4ccc(-c6ccc(OC)cc6)cc4)c3CC5)cc2)cc1` yielded a photoluminescence quantum yield of 0.827.
For the compound `Cc1ccc(C(=O)OCc2ccc3c4cccc5cccc(c6cccc2c63)c54)cc1`, under “in CCO”, the photoluminescence quantum yield was found to be 0.93.
As for `CN(C)c1ccc(C#Cc2ccc(C=O)cc2)cc1`, the photoluminescence quantum yield (in C1CCCCC1) came out at 0.363; the photoluminescence quantum yield (in C1CCOC1) is 0.131; the photoluminescence quantum yield (in C1COCCO1) was found to be 0.254; the photoluminescence quantum yield (in CC1CCCO1) was 0.223; the photoluminescence quantum yield (in CC#N) was 0.012; the photoluminescence quantum yield (in CC(C)=O) is 0.047. For the same compound, the photoluminescence quantum yield was found to be 0.044 (in CC(C)CC(C)(C)C); 0.017 (in CC(C)O); 0.056 (in CCCCCCCCCCCCCCCC); 0.093 (in CCCCCCCCCCCCCCCCCl); 0.174 (in CCOC(C)=O); 0.201 (in CCOCC). Besides, the photoluminescence quantum yield reads like this: (in CN(C)C=O) 0.046; (in CO) 0.006; (in CS(C)=O) 0.037; (in Cc1ccccc1) 0.337.
`CC(C)(C)c1ccc2c(c1)c1cc(C(C)(C)C)ccc1n2-c1cccc(-c2nc(-c3cccc(P(=O)(c4ccccc4)c4ccccc4)c3)nc(-c3cccc(P(=O)(c4ccccc4)c4ccccc4)c3)n2)c1` had a photoluminescence quantum yield (in O=P(c1ccccc1)(c1ccccc1)c1ccccc1Oc1ccccc1P(=O)(c1ccccc1)c1ccccc1) of 0.72.
Compound `CN(C)c1nc(N(C)C)c2nc(C#N)n(Cc3ccccc3)c2n1` gave a photoluminescence quantum yield (in C1COCCO1) of 0.95, a photoluminescence quantum yield (in CC#N) of 0.26, a photoluminescence quantum yield (in CO) of 0.03 and a photoluminescence quantum yield (in ClCCl) of 0.2.
`C[n+]1cc2ccc3c[n+](C)c4ccccc4c3c2c2ccccc21`: the photoluminescence quantum yield (in CC#N) was 0.066.
Consider `F[B-]1(F)n2c(c3cc4ccccc4cc3c2-c2ccccc2)C=C2c3cc4ccccc4cc3C(c3ccccc3)=[N+]21`, for which the photoluminescence quantum yield (in C1CCOC1) was determined as 0.16, the photoluminescence quantum yield (in CN(C)C=O) amounted to 0.14, the photoluminescence quantum yield (in ClCCl) worked out at 0.16 and the photoluminescence quantum yield (in c1ccccc1) worked out at 0.21.
`N#Cc1nc(N(Cc2ccccc2I)Cc2ccccc2I)c(C#N)nc1N(Cc1ccccc1I)Cc1ccccc1I` gave a photoluminescence quantum yield (in ClC(Cl)Cl) of 0.61.
Turning to `COc1ccc(CCNC(=O)c2sc(-c3ccc(-c4cc(-c5ccc(C(C)(C)C)cc5)c(C(=O)NCCc5ccc(OC)c(OC)c5)s4)s3)cc2-c2ccc(C(C)(C)C)cc2)cc1OC`, where the note is “in ClCCl”, the photoluminescence quantum yield is 0.27.
For `CCCCN1/C(=C\c2c(-c3ccc(N(C)C)cc3)c(=O)c2=O)C=Cc2ccccc21`, the photoluminescence quantum yield reads like this: (in C1CCCCC1) 0.0242; (in Cc1ccccc1) 0.0163; (in ClCCl) 0.001.
For `Cc1cc2cc(C)c3c4ccccc4[nH]c3c2s1`, for the setting “in ClCCl”, the photoluminescence quantum yield came to 0.047.
Where the note is “in C1COCCO1”, `CC(C)CN1C(=O)/C(=C/c2ccc([N+](=O)[O-])cc2)C=C1c1ccccc1` came in with a photoluminescence quantum yield of 0.033.
Turning to `COc1ccc(C2=[N+]3C(=Nc4c(-c5cc(OC)c(OC)c(OC)c5)c(-c5ccc(C(C)(C)C)cc5)c(-c5ccc(OC)cc5)n4[B-]3(F)F)C(c3cc(OC)c(OC)c(OC)c3)=C2c2ccc(C(C)(C)C)cc2)cc1`, the photoluminescence quantum yield (in Cc1ccccc1) came out at 0.04.
For the setting “in ClCCl”, `C(=C\c1ccncn1)/c1ccc(-c2ccc(N(c3ccccc3)c3ccccc3)cc2)cc1` came in with a photoluminescence quantum yield of 0.52.
`COc1cc2c(cc1-c1ccc(C)cc1)Cc1c3c(c4c(c1-2)-c1cc(OC)c(-c2ccc(C)cc2)cc1C4)C(=O)N(CCC(C)C)C3=O` showed a photoluminescence quantum yield (in C1CCOC1) of 0.67.
Take `CCCCN(CCCC)c1ccc(C#Cc2cc(C#Cc3ccc(N(CCCC)CCCC)cc3)c(C#Cc3ccc(C#N)cc3)cc2C#Cc2ccc(C#N)cc2)cc1`: the photoluminescence quantum yield (in ClCCl) is 0.35.
Where the note is “in CO”, `N#Cc1c(-n2nnc3cc(Cl)ccc32)n([C@H]2C[C@H](O)[C@@H](CO)O2)c2ncnc(N)c12` had a photoluminescence quantum yield of 0.008.
Take `CCC1=C(C)C2=C(c3c(C)cc(C)nc3-c3cccs3)c3c(C)c(CC)c(C)n3[B-](F)(F)[N+]2=C1C`: the photoluminescence quantum yield (in C1CCCCC1) came out at 0.53; the photoluminescence quantum yield (in C1CCOC1) worked out at 0.46; the photoluminescence quantum yield (in C1COCCO1) worked out at 0.49; the photoluminescence quantum yield (in CC#N) is 0.45; the photoluminescence quantum yield (in CCCCCC) was 0.52; the photoluminescence quantum yield (in CCO) came to 0.47. Further, the photoluminescence quantum yield turned out to be 0.47 (in CCOC(C)=O); 0.5 (in CCOCC); 0.44 (in CN(C)C=O); 0.44 (in CS(C)=O); 0.49 (in Cc1ccccc1); 0.5 (in ClC(Cl)(Cl)Cl). This compound also showed a photoluminescence quantum yield (in ClC(Cl)Cl) of 0.49.
For the setting “in CC#N”, `Cc1ccc(C#Cc2ccc3ccc(=O)oc3c2)cc1` showed a photoluminescence quantum yield of 0.016.
The compound `O=C1c2cc(-c3ccccc3)ccc2-c2ccc(-c3ccccc3)cc21` had a photoluminescence quantum yield (in C1CCOC1) of 0.01.
Take `C1=Cc2ccccc2Cc2ccccc21`: the photoluminescence quantum yield by setting is: (in CC#N) 0.82; (in CO) 0.016.
On to `COc1ccc(-c2nc(-c3ccc(OC)cc3)n3ccccc23)cc1`, for which, under “in ClC(Cl)Cl”, the photoluminescence quantum yield was 0.22.
`CCCCN1C(=O)c2ccc3c4ccc5c6c(cc(Br)c(c7ccc(c2c37)C1=O)c64)C(=O)N(CCCC)C5=O` had a photoluminescence quantum yield (in ClCCl) of 0.92.
Under “in Cc1ccccc1”, `Cc1ccc(N2C(c3ccccc3N)=NC(c3ccccc3)C2c2ccccc2)cc1` (centres undefined) returned a photoluminescence quantum yield of 0.009.
In turn, `N#Cc1cc2ccccc2oc1=N` yielded a photoluminescence quantum yield (in C1CCOC1) of 0.0681; a photoluminescence quantum yield (in CC#N) of 0.00119; a photoluminescence quantum yield (in CCOC(C)=O) of 0.0842; a photoluminescence quantum yield (in CS(C)=O) of 0.00124; a photoluminescence quantum yield (in ClC(Cl)Cl) of 0.0946.
In turn, `N#Cc1c(N2CCCCC2)cc(-c2cccs2)c2c1CCc1ccccc1-2` yielded a photoluminescence quantum yield (in C1CCOC1) of 0.21.
For the compound `CCC1=C(C)C2=C(C)c3cccn3[B-](F)(F)[N+]2=C1C`, the photoluminescence quantum yield reads like this: (in C1CCCCC1) 0.96; (in CC(C)=O) 0.79; (in CCO) 0.84; (in CCOC(C)=O) 0.84; (in CO) 0.76; (in OCC(F)(F)F) 0.75.
Turning to `COc1ccc(C2=N/C(=C\c3ccc(C#N)cc3)C(=O)O2)cc1OC`, where the note is “in C1COCCO1”, the photoluminescence quantum yield was 0.421.
In turn, `CCCCCCC1(CCCCCC)c2cc(-c3ccc(-c4ccc(-c5ccc(-c6ccc7c(c6)C(CCCCCC)(CCCCCC)c6cc(-n8c9ccccc9c9ccccc98)ccc6-7)s5)c5nsnc45)s3)ccc2-c2ccc(-n3c4ccccc4c4ccccc43)cc21` displayed a photoluminescence quantum yield (in ClCCl) of 0.39.
`Cc1cccc2nc3c(=O)n(C)c(=O)nc-3n(C)c12` displayed a photoluminescence quantum yield (in CC#N) of 0.07.
Under “in ClCCl”, `CCN(CC)c1ccc2cc(-c3nc4cc(C(=O)Nc5ccccc5[N+](=O)[O-])ccc4o3)c(=O)oc2c1` came in with a photoluminescence quantum yield of 0.38.
